The text below walks through data of ChEMBL document CHEMBL5465560, “Selectivity Literature for EUbOPEN Chemogenomic Library” (2024).

In assay [1] the target is T1, Serine/threonine-protein kinase DCLK1 (Homo sapiens) (UniProt O15075).
T1 sequence (whole entry): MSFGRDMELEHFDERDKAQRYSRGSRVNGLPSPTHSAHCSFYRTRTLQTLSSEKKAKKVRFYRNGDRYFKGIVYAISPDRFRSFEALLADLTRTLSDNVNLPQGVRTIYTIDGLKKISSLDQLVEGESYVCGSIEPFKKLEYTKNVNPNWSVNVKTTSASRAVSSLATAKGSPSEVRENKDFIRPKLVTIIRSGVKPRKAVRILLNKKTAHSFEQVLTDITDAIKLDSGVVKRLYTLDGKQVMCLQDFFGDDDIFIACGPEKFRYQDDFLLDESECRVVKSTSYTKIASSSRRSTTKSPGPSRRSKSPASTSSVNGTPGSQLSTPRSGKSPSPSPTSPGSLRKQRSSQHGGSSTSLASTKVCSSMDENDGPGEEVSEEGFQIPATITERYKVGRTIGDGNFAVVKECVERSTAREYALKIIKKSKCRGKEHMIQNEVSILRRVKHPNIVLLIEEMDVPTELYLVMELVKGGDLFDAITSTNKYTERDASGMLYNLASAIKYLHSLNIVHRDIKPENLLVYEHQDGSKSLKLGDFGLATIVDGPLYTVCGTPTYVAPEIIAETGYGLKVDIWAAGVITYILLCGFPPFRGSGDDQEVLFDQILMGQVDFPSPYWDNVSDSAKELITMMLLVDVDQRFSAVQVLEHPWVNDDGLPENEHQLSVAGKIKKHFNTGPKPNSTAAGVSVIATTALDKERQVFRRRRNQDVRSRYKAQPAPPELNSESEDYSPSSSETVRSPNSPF
Kind of assay: Selectivity interaction (Kinase panel (Z-LYTE Assay)) EUB0001632a DCLK1. As to conditions: at 10 µM.

The target of assay [2] is Serine/threonine-protein kinase PLK1 (Homo sapiens, UniProt P53350). Briefly: Selectivity interaction (KinomeScan (DiscoverX)) EUB0000607a PLK1. As to conditions: at 10 µM.
Assay [3] deals with T2, Inhibitor of nuclear factor kappa-B kinase subunit beta (Homo sapiens) (UniProt O14920).
T2 sequence (whole entry): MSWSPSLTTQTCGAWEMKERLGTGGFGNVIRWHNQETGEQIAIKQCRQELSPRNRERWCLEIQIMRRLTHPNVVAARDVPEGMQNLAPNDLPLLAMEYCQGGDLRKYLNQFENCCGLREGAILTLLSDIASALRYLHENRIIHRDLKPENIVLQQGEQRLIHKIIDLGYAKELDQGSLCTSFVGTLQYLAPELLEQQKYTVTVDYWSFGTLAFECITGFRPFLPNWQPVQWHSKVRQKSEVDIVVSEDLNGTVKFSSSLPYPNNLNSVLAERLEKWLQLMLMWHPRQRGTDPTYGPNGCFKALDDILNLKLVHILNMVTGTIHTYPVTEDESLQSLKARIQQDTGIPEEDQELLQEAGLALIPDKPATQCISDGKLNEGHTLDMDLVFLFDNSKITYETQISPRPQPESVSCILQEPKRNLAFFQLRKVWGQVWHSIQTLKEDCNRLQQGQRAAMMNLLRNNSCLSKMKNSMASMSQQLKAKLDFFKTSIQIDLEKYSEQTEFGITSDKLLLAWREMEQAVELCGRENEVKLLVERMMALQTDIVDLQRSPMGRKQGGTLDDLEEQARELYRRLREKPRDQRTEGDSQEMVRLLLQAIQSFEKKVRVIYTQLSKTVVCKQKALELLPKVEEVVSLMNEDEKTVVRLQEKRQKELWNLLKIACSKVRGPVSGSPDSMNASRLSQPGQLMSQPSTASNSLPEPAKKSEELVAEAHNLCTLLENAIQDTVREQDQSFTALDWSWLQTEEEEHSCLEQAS
The conditions noted are these: at 10 µM.

In assay [4] the target is T3, Protein arginine N-methyltransferase 9 (Homo sapiens) (UniProt Q6P2P2).
T3 sequence (whole entry): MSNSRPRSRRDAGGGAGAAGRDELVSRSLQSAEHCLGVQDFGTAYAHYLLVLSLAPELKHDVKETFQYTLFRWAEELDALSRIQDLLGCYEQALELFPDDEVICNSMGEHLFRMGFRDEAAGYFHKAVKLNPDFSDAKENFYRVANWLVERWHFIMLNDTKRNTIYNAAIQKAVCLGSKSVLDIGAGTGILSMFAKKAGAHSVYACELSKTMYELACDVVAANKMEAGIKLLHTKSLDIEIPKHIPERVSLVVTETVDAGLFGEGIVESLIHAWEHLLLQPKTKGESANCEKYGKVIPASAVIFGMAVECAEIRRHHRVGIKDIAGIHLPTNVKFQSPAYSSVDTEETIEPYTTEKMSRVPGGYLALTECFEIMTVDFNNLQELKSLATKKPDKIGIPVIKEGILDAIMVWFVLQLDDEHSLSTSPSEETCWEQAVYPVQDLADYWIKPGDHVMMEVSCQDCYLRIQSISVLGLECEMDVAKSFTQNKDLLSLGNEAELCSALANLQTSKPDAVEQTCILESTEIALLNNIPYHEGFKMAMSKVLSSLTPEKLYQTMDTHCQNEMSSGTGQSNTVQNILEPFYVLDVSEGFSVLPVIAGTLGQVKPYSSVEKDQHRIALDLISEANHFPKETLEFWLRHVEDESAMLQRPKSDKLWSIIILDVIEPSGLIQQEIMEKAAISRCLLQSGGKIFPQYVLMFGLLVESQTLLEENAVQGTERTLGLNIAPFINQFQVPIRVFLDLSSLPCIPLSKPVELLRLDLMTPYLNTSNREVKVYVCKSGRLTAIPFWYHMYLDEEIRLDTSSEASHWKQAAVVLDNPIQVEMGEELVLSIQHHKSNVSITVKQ
The conditions noted are these: at 10 µM.

Assay [5] has as its target Dual specificity tyrosine-phosphorylation-regulated kinase 1B (Homo sapiens, UniProt Q9Y463). Kind of assay: Selectivity interaction (KinomeScan (DiscoverX)) EUB0000229b DYRK1B. As to conditions: at 10 µM.
Assay [6] deals with Serine/threonine-protein kinase ICK (Homo sapiens, UniProt Q9UPZ9). Kind of assay: Selectivity interaction (Kinase panel (Invitrogen, enzymatic assay)) EUB0000162b ICK.
The target in assay [7] is Aurora kinase B (Homo sapiens, UniProt Q96GD4). Kind of assay: Selectivity interaction (ActivX KiNativ screen (kinase selectivity in THP-1 cell lysates)) EUB0000639a AURKB. The class given is subcellular. The conditions noted are these: lysate, at 0.04 µM.
Assay [8] concerns the target Serine/threonine-protein kinase pim-2 (Homo sapiens, UniProt Q9P1W9). Kind of assay: Selectivity interaction (Kinase screening (Nanosyn)) EUB0000604a PIM2.

Serine/threonine-protein kinase PLK1, sequence (P53350 whole entry): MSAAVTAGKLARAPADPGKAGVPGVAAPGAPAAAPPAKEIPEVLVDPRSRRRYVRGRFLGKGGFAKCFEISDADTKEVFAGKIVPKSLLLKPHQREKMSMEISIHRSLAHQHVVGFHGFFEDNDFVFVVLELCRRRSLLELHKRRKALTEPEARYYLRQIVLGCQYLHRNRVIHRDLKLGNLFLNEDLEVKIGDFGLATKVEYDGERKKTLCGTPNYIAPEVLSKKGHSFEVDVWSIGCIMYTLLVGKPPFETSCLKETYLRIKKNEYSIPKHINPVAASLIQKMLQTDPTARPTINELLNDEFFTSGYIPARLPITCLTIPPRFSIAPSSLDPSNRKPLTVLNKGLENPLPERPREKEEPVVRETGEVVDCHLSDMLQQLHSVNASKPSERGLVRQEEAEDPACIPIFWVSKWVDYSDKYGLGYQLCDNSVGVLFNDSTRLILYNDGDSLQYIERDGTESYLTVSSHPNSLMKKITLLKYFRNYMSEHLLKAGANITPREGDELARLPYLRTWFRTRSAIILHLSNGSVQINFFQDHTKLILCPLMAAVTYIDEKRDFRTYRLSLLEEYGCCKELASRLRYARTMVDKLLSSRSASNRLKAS
Serine/threonine-protein kinase ICK, sequence (Q9UPZ9 whole entry): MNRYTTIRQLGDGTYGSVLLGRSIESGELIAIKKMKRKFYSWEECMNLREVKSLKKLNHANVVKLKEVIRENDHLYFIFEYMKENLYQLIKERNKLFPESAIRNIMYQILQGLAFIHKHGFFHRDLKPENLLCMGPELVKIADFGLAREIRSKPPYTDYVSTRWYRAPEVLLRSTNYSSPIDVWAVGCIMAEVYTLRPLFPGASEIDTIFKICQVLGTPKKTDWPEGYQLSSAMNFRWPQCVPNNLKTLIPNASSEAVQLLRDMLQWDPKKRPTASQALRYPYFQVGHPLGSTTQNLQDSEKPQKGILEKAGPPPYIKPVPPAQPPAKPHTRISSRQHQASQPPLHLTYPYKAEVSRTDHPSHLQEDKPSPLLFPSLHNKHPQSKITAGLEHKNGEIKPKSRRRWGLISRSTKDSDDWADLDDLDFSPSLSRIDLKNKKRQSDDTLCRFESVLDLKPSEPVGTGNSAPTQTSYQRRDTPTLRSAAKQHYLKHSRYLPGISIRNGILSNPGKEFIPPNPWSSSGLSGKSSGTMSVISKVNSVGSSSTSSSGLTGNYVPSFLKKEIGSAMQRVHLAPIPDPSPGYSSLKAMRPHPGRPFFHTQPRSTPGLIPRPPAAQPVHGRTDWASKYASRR
Serine/threonine-protein kinase pim-2, sequence (Q9P1W9 whole entry, looked up): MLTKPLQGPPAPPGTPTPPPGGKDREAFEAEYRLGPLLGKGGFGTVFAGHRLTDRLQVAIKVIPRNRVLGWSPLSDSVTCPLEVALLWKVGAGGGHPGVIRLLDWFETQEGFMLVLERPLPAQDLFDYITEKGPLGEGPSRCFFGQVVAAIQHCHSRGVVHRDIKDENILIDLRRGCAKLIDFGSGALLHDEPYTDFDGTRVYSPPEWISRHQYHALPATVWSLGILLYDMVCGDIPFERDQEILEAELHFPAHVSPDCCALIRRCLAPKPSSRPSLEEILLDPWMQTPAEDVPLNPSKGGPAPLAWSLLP
Dual specificity tyrosine-phosphorylation-regulated kinase 1B, sequence (Q9Y463 whole entry, looked up): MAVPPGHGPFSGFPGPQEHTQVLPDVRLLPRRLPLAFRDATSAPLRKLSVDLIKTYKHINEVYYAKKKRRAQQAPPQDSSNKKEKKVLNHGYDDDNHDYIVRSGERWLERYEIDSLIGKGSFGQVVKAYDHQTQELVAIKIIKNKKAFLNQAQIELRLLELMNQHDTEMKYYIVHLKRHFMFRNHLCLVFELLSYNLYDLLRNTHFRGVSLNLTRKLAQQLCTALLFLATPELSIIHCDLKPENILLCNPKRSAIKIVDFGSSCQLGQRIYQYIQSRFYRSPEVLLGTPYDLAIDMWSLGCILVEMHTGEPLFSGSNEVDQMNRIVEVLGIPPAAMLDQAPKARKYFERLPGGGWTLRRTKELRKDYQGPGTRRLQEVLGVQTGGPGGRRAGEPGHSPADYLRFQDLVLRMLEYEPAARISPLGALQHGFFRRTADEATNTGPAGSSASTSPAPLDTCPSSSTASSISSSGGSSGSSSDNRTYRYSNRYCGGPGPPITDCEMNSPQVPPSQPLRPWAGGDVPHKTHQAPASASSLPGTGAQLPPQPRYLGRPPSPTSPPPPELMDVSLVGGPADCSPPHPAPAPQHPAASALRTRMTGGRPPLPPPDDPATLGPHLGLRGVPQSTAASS
Aurora kinase B, sequence (Q96GD4 whole entry): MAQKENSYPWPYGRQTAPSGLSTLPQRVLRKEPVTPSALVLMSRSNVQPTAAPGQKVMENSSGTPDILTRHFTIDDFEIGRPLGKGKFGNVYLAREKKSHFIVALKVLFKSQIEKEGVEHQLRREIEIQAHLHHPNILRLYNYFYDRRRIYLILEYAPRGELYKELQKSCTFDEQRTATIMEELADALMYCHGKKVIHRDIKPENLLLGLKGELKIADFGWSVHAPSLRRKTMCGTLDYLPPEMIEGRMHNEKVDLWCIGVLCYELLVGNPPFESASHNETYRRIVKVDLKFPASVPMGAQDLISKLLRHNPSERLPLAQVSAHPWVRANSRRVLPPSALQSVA

On to `Cn1cc(-n2cnc3c(NCc4nc5cc(Cl)c(Cl)cc5[nH]4)nc(N4CCOCC4)nc32)cn1`, for which, in assay [1], the % of control was -1.19%. With `CNC(=O)Nc1ccc(-c2nc(N3CC4CCC(C3)O4)c3cnn(C4CCC5(CC4)OCCO5)c3n2)cc1`, the % of control in assay [2] is 77%. For `Cc1cc([C@@H](C)Nc2ccccc2C(=O)O)c2nc(N3CCOCC3)cc(=O)n2c1` [AZD-6482], the % of control in assay [3] was 90%. `CNCCN1CCC(c2cc(CN(C)C(=O)c3cccc(Oc4ccccc4)c3)ccn2)CC1` displayed a % activity in assay [4] above 90%. In assay [5], `COc1cc(N(C)c2ccnc3ccc(C(F)(F)F)cc23)cc(OC)c1OC` came in with a % binding of 77%. Regarding `CN(C)C(=O)Cn1cc(-c2ccc(-c3cncc4ccccc34)cc2)cn1`, half-maximal inhibition in assay [6] (IC50) required 2390 nM. For `CC[C@@H]1[C@H](F)C(=O)N[C@@H]1COc1nccc2cc(C(N)=O)c(OC)cc12` [ZIMLOVISERTIB], in assay [7], the % of inhibition was -1.3%. For `Cc1cnc(Nc2ccc(F)cc2Cl)nc1-c1c[nH]c(C(=O)N[C@H](CO)c2cccc(Cl)c2)c1`, the % of inhibition in assay [8] stood at 3%.
